Data on two compounds can be found in ChEMBL document CHEMBL3297716, “Rhapontigenin suppresses cell migration and invasion by inhibiting the PI3K-dependent Rac1 signaling pathway in MDA-MB-231 human breast cancer cells” (J Nat Prod, 2014).

A word on the inhibition: it is the change of the read-out against control, counted positive when it falls.

For series [1], the system named is MDA-MB-231. The series is described as follows: Cytotoxicity against human MDA-MB-231 cells assessed as cell viability at 100 to 200 uM after 24 hrs by MTT assay. The format is cell-based. The conditions noted are these: mda-mb-231, 24 h. For orientation: Formazan colour is commonly taken as a measure of viable cells.
In series [2] the test system is MDA-MB-231. As to the kind of experiment: Cytotoxicity against human MDA-MB-231 cells assessed as cell viability up to 50 uM after 24 hrs by MTT assay. In kind it is cell-based. The settings on record: mda-mb-231, 24 h.
Series [3] is filed under the species Homo sapiens. As to the kind of experiment: Inhibition of PI3K-dependent Rac1 activation in human MDA-MB-231 cells assessed as suppression of serum-induced cell migration at 10 uM after 24 hrs by wound-healing assay relative to control. The format is cell-based.
For series [4], the species on record is Homo sapiens. As to the kind of experiment: Inhibition of PI3K-dependent Rac1 activation in human MDA-MB-231 cells assessed as suppression of serum-induced cell migration at 25 uM after 24 hrs by wound-healing assay relative to control. In kind it is cell-based.
Series [5] is filed under the species Homo sapiens. The series is described as follows: Inhibition of PI3K-dependent Rac1 activation in human MDA-MB-231 cells assessed as suppression of serum-induced cell migration at 50 uM after 24 hrs by wound-healing assay relative to control. In kind it is cell-based.
The subject of series [6] is MDA-MB-231. The series is described as follows: Inhibition of PI3K-dependent Rac1 activation in human MDA-MB-231 cells assessed as suppression of serum-induced cell invasion into matrigel at 10 uM preincubated for 30 mins with cells followed by loading into upper well of matrigel coated filter measured after 15 hrs by Boyden chamber analysis relative to control. In kind it is cell-based.

For series [7], the system named is MDA-MB-231. As to the kind of experiment: Inhibition of PI3K-dependent Rac1 activation in human MDA-MB-231 cells assessed as suppression of serum-induced cell invasion into matrigel at 25 uM preincubated for 30 mins with cells followed by loading into upper well of matrigel coated filter measured after 15 hrs by Boyden chamber analysis relative to control. The format is cell-based.

Series [8] deals with MDA-MB-231. The series is described as follows: Inhibition of PI3K-dependent Rac1 activation in human MDA-MB-231 cells assessed as suppression of serum-induced cell invasion into matrigel at 50 uM preincubated for 30 mins with cells followed by loading into upper well of matrigel coated filter measured after 15 hrs by Boyden chamber analysis relative to control. In kind it is cell-based.

Series [9] deals with MDA-MB-231. As to the kind of experiment: Inhibition of PI3K-dependent Rac1 activation in human MDA-MB-231 cells at 10 uM after 30 mins by ELISA relative to untreated control. The format is cell-based. A general note: An ELISA detects its analyte on a solid surface through an enzyme-linked reagent.
Series [10] has as its system MDA-MB-231. As to the kind of experiment: Inhibition of PI3K-dependent Rac1 activation in human MDA-MB-231 cells at 25 uM after 30 mins by ELISA relative to untreated control. In kind it is cell-based.
Series [11] has as its system MDA-MB-231. The series is described as follows: Inhibition of PI3K-dependent Rac1 activation in human MDA-MB-231 cells at 50 uM after 30 mins by ELISA relative to untreated control. The format is cell-based.
In series [12] the test system is MDA-MB-231. The series is described as follows: Effect on total Rac1 protein expression in human MDA-MB-231 cells after 30 mins by Western blot analysis. The format is functional, cell-based. (In general: Immunoblotting shows a protein as a band on a membrane.)
Series [13] has as its system MDA-MB-231. As to the kind of experiment: Inhibition of PI3K in human MDA-MB-231 cells assessed as downregulation of activated Rac1-GTP protein expression at 50 uM after 30 mins by Western blot analysis. The format is cell-based.
Series [14] has as its system MDA-MB-231. As to the kind of experiment: Inhibition of PI3K-dependent Rac1 activation in human MDA-MB-231 cells assessed as downregulation of WAVE-2 protein expression at 10 to 50 uM after 24 hrs by Western blot analysis. In kind it is cell-based.
In series [15] the test system is MDA-MB-231. As to the kind of experiment: Inhibition of PI3K-dependent Rac1 activation in human MDA-MB-231 cells assessed as downregulation of Arp-2 protein expression at 10 to 50 uM after 24 hrs by Western blot analysis. The format is cell-based.
Series [16] concerns MDA-MB-231. As to the kind of experiment: Inhibition of PI3K-dependent Rac1 activation in human MDA-MB-231 cells assessed as downregulation of Arp-3 protein expression at 10 to 50 uM after 24 hrs by Western blot analysis. In kind it is cell-based.
Series [17] has as its system MDA-MB-231. The series is described as follows: Inhibition of PI3K-dependent Rac1 activation in human MDA-MB-231 cells assessed as inhibition of PAK1 phosphorylation at 10 to 50 uM after 24 hrs by Western blot analysis. In kind it is cell-based.
For series [18], the system named is MDA-MB-231. As to the kind of experiment: Inhibition of PI3K-dependent Rac1 activation in human MDA-MB-231 cells assessed as inhibition of LIMK1/2 phosphorylation at 10 to 50 uM after 24 hrs by Western blot analysis. The format is cell-based.
Series [19] has as its system MDA-MB-231. The series is described as follows: Inhibition of PI3K-dependent Rac1 activation in human MDA-MB-231 cells assessed as inhibition of cofilin phosphorylation at 10 to 50 uM after 24 hrs by Western blot analysis. In kind it is cell-based.
Series [20] relates to MDA-MB-231. The series is described as follows: Effect on total PAK1 protein level in human MDA-MB-231 cells at 10 to 50 uM after 24 hrs by Western blot analysis. The format is functional, cell-based.
For series [21], the system named is MDA-MB-231. As to the kind of experiment: Effect on total LIMK1/2 protein level in human MDA-MB-231 cells at 10 to 50 uM after 24 hrs by Western blot analysis. The format is functional, cell-based.
For series [22], the system named is MDA-MB-231. As to the kind of experiment: Effect on total cofilin protein level in human MDA-MB-231 cells at 10 to 50 uM after 24 hrs by Western blot analysis. The format is functional, cell-based.
Series [23] relates to MDA-MB-231. As to the kind of experiment: Inhibition of PI3K-dependent Rac1 activation in human MDA-MB-231 cells assessed as inhibition of lamellipodia formation at 50 uM after 24 hrs by rhodamine phalloidin/DAPI staining-based confocal microscopic analysis. The format is cell-based.
The subject of series [24] is MDA-MB-231. The series is described as follows: Inhibition of PI3K phosphorylation in human MDA-MB-231 cells at 10 to 50 uM after 24 hrs by Western blot analysis. In kind it is cell-based.
Series [25] relates to MDA-MB-231. As to the kind of experiment: Inhibition of PI3K in human MDA-MB-231 cells assessed as inhibition of AKT phosphorylation at 10 to 50 uM after 24 hrs by Western blot analysis. In kind it is cell-based.
Series [26] deals with MDA-MB-231. The series is described as follows: Effect on total PI3K protein level in human MDA-MB-231 cells at 10 to 50 uM after 24 hrs by Western blot analysis. In kind it is functional, cell-based.
The test system of series [27] is MDA-MB-231. The series is described as follows: Effect on total AKT protein level in human MDA-MB-231 cells at 10 to 50 uM after 24 hrs by Western blot analysis. In kind it is functional, cell-based.
For series [28], the system named is MDA-MB-231. As to the kind of experiment: Inhibition of PI3K in human MDA-MB-231 cells assessed as inhibition of AKT phosphorylation at 1 to 10 uM after 24 hrs by Western blot analysis. In kind it is cell-based.
In series [29] the test system is MDA-MB-231. As to the kind of experiment: Effect on total AKT protein level in human MDA-MB-231 cells at 1 to 10 uM after 24 hrs by Western blot analysis. The format is functional, cell-based.

Active and inactive are the calls of the source. The rule behind the calls is not given here.

As for `COc1ccc(/C=C/c2cc(O)cc(O)c2)cc1O`, the Activity result in series [1] is given as “Toxic”; in series [2], “Non-toxic”. Further, the inhibition in series [3] is 25%; in series [4], 44%; in series [5], 70%; in series [6], 26%; in series [7], 50%; in [8] it was 68%. Moreover, the results for the inhibition in [9], in series [10] and in series [11] were 17%, 25% and 44%, respectively. Further, the result in series [12], in series [20], in series [21], in [22], in series [26] and in [27] was inactive. Besides, the inhibition result in series [13], in series [14], in series [15], in [16], in series [17] and in [18] was “Active” in each case. In addition, the inhibition result in [19], in [23], in [24] and in [25] was “Active” in each case.
As to `COC[C@H]1OC(=O)c2coc3c2[C@@]1(C)C1=C(C3=O)[C@@H]2CCC(=O)[C@@]2(C)C[C@H]1OC(C)=O`, the inhibition result in series [28] was “Active”. For the same compound, the outcome in series [29] was inactive.
